From article PMC6602942, “Vertebrates originally possess four functional subtypes of G protein-coupled melatonin receptor” (Scientific Reports, 2019)
Where “and” joins values, the source holds several entries; their conditions need not be identical. Equal entries are not always repeated. Where two headings read alike, the source gives them in different places.

Columns and labels:
medaka MTNR1c [1] = target: T1, medaka MTNR1c (Oryzias latipes, UniProt A0A0D6A8H7); assay: cAMP-responsive (CRE-luc) reporter gene assay, agonist mode; format: cell-based; conditions: for RAA (%) MTNR1c (relative agonistic activity) / Emax: maximal activity as percentage of that of melatonin, Hepa-E1 cells, forskolin, ND: not detected; for Emax: read-out: RAA (%) MTNR1c (relative agonistic activity)
Excerpt: (§1) Expression vectors for medaka mtnr genes, (pcDNA-OlMTNR1a, pcDNA-OlMTNR1b, pcDNA-OlMTNR1c and pcDNA-OlMTNR1a-like) were constructed by PCR amplification of the entire protein coding region, using primers which introduced in-frame Kozak sequence[33] at the 5′ end. A cyclic adenosine monophosphate (cAMP)-regulated reporter vector containing the luciferase gene under the control of a cAMP response element upstream of the TATA-like promoter region from the herpes simplex virus thymidine kinase promoter, named pCRE-luc, originated from the Pathway Profiling Luciferase System (Clontech). Hepa-E1 cells, i.e. epithelial-like Nile tilapia hepatocytes, were obtained from the Institute of Physical and Chemical Research (RIKEN) cell bank (Tsukuba, Japan). For MTNR1a, MTNR1b and MTNR1d, stable transfections were performed as described below. Hepa-E1 cells were seeded in 9 cm dishes prior to transfection. Both plasmids, pCRE-luc as well as expression vectors for medaka mtnrs were linearized by […] and transfected with X-tremeGENE 9 (Roche) according to the manufacturer’s instructions. Stably transfected cells were selected with G418. After selection, each colony was collected by pipetting. Sensitivity for cAMP in each clone was tested by forskolin treatment after seeding into 96-well plates with E-RDF medium (Kyokuto, Tokyo, Japan) and supplemented with 5% dextran-charcoal treated fetal bovine serum. After 24 h the cells were collected, and cellular luciferase activities were measured by luminescence assay with the Steady-Glo Assay System Kit (Promega) according to the manufacturer’s instructions. Forskolin-sensitive cell lines derived from co-transfection of pCRE-luc and pcDNA3.1(+) were developed as control lines and named null-CRE-luc. Forskolin-sensitive cell lines derived from co-transfection of pCRE-luc and each pcDNA-OlMTNR1 were selected for by sensitivity for melatonin.
(§2) For MTNR1c, transient transfection was performed as outlined below. The MTNR1c experiment was performed using Hepa-E1 cells in 9 cm dishes, which were transiently transfected by pcDNA-OlMTNR1c (500 ng) and pCRE-luc (5000 ng) by TransIT-X2 Dynamic Delivery System (Mirus) and incubated 24 h before seeding, following the manufacturer’s instructions. Cells derived from a chosen clone or MRNR1c-tranfected cells were seeded at 10^4 cells per well in 96-well luminometer plates. Then, cells were treated with test chemicals in triplicate at four-fold serial dilutions in the presence or absence of melatonin with 6.25 × 10^−7 M forskolin. For testing the antagonistic effect, reagents were mixed with melatonin at 90% effective concentration (EC90). Negative control wells were dosed with media plus 0.1% ethanol. Positive control wells were dosed with 1 μM melatonin. After 24 h, luciferase activities were measured as described above. Concentration-response curves were fitted and the EC50 or IC50 were calculated using sigmoidal fit in GraphPad Prism5. The relative agonistic activity (RAA) of each reagent was expressed as a percentage of the maximal activity for the reporter induction to that of melatonin. The antagonistic index (AI) of each reagent was expressed as a percentage of the maximal inhibition of the reagent. Maximal inhibition was calculated as the quotient of the subtraction of the luminescence for melatonin from the maximal luminescence for the reagent divided by the maximal inhibition of melatonin. When the reagent inhibits the transactivity to the same level of that of the vehicle control (forskolin), the AI equals 100%.

medaka MTNR1a [2] = target: T2, medaka MTNR1a (Oryzias latipes, UniProt H2LVT7); assay: as above; format: cell-based; conditions: for RAA (%) MTNR1a (relative agonistic activity): maximal activity as percentage of that of melatonin; for agonistic activity in medaka MTNR1a: reporter assay without melatonin
Excerpt: as §1, §2

[3] = target: T3, medaka MTNR1a-like (MTNR1d) (Oryzias latipes, UniProt A0A3B3HMP3); assay: as above; format: cell-based; conditions: for Emax: read-out: RAA (%) MTNR1a-like (relative agonistic activity); for agonistic activity in medaka MTNR1d: reporter assay without melatonin
Excerpt: as §1, §2

medaka MTNR1b [4] = target: T4, medaka MTNR1b (Oryzias latipes, UniProt A0ACM8R453); assay: as above; format: cell-based; conditions: for RAA (%) MTNR1b (relative agonistic activity): maximal activity as percentage of that of melatonin, Hepa-E1 cells, forskolin, ND: not detected
T4 sequence (A0ACM8R453 1-364): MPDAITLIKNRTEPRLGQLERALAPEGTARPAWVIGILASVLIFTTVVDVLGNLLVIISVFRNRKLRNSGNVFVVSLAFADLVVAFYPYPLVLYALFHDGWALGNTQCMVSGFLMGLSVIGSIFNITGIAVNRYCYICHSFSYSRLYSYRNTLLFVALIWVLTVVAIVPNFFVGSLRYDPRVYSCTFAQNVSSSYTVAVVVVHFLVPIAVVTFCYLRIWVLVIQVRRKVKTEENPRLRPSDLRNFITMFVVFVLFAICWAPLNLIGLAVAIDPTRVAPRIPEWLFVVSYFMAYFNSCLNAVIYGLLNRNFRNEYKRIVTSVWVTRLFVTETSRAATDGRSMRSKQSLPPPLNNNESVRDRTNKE
Excerpt: as §1, §2

medaka MTNR1a [5] = target: T2, medaka MTNR1a; conditions: maximal inhibition of melatonin (EC90) effect; 100% = forskolin level; ND: not detected
Experimental: (§4) Hepa-E1 cells were seeded in 9 cm dishes prior to transfection. Both plasmids, pCRE-luc as well as expression vectors for medaka mtnrs were linearized by PCR and transfected with X-tremeGENE 9 (Roche) according to the manufacturer’s instructions. Stably transfected cells were selected with G418. After selection, each colony was collected by pipetting. Sensitivity for cAMP in each clone was tested by forskolin treatment after seeding into 96-well plates with E-RDF medium (Kyokuto, Tokyo, Japan) and supplemented with 5% dextran-charcoal treated fetal bovine serum. After 24 h the cells were collected, and cellular luciferase activities were measured by luminescence assay with the Steady-Glo Assay System Kit (Promega) according to the manufacturer’s instructions. […]
(§5) Cells derived from a chosen clone or MRNR1c-tranfected cells were seeded at 10^4 cells per well in 96-well luminometer plates. […] After 24 h, luciferase activities were measured as described above. Concentration-response curves were fitted and the EC50 or IC50 were calculated using sigmoidal fit in GraphPad Prism5. […] The antagonistic index (AI) of each reagent was expressed as a percentage of the maximal inhibition of the reagent. Maximal inhibition was calculated as the quotient of the subtraction of the luminescence for melatonin from the maximal luminescence for the reagent divided by the maximal inhibition of melatonin. […]

[6] = target: T3, medaka MTNR1a-like (MTNR1d); conditions: maximal inhibition of melatonin (EC90) effect; 100% = forskolin level; ND: not detected
Experimental: as §4, §5

medaka MTNR1c [7] = target: T1, medaka MTNR1c; assay: cAMP-responsive (CRE-luc) reporter gene assay, antagonist mode with EC90 melatonin; format: cell-based; conditions: maximal inhibition of melatonin (EC90) effect; 100% = forskolin level; ND: not detected
Excerpt: as §1
(§3) For MTNR1c, transient transfection was performed as outlined below. […] After 24 h, luciferase activities were measured as described above. Concentration-response curves were fitted and the EC50 or IC50 were calculated using sigmoidal fit in GraphPad Prism5. The relative agonistic activity (RAA) of each reagent was expressed as a percentage of the maximal activity for the reporter induction to that of melatonin. The antagonistic index (AI) of each reagent was expressed as a percentage of the maximal inhibition of the reagent. Maximal inhibition was calculated as the quotient of the subtraction of the luminescence for melatonin from the maximal luminescence for the reagent divided by the maximal inhibition of melatonin. […]

medaka MTNR1b [8] = target: T4, medaka MTNR1b; assay: as above; format: cell-based; conditions: for AI (%) MTNR1b (antagonistic index): maximal inhibition of melatonin (EC90) effect, 100% = forskolin level, ND: not detected
Excerpt: as §1, §3

[9] = 24 h, listed as 2-Iodomelatonin
[10] = stably transfected Hepa-E1 cells, 6.25 × 10^−7 M forskolin, 24 h, NC: not calculable (low activity, curve did not reach maximum), read-out: Potency (M) MTNR1a
[11] = maximal activity as percentage of that of melatonin, Hepa-E1 cells, forskolin, 24 h, ND: not detected
[12] = stably transfected Hepa-E1 cells, 6.25 × 10^−7 M forskolin, 24 h, NC: not calculable (low activity, curve did not reach maximum), read-out: Potency (M) MTNR1a-like

T1 sequence (A0A0D6A8H7 entry or part of it): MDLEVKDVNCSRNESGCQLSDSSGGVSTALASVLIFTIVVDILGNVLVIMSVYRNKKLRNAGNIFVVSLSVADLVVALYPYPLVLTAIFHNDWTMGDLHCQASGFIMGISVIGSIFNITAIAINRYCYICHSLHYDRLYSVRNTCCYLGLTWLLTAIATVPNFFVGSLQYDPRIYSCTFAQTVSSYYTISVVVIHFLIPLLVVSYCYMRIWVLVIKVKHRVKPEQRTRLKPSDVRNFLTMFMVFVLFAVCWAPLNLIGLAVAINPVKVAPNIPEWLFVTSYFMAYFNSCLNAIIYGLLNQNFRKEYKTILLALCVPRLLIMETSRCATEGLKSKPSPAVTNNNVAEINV
T3 sequence (A0A3B3HMP3 1-354): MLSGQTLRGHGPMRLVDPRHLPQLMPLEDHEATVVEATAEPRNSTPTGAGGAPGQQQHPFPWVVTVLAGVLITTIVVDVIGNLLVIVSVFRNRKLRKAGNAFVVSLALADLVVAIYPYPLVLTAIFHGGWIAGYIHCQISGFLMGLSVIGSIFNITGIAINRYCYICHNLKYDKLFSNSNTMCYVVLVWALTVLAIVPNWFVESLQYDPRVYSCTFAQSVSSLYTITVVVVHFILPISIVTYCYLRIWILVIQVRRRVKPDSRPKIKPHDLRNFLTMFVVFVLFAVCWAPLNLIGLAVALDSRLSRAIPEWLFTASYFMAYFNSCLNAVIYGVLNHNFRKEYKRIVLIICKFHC
T2 sequence (H2LVT7 1-347): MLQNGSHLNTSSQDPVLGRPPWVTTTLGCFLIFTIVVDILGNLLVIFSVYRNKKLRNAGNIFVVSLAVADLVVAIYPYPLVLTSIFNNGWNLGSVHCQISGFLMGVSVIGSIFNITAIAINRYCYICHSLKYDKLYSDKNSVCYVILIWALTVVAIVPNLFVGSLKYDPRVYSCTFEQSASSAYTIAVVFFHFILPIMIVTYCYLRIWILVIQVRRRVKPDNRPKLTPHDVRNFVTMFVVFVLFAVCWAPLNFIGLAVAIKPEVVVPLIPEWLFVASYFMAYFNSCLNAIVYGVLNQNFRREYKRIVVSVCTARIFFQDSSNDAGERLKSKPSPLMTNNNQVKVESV

COc1ccc2[nH]c(I)c(CCNC(C)=O)c2c1 [2-Iodo melatonin, 2-Iodomelatonin]
RAA (%) MTNR1c (relative agonistic activity) (medaka MTNR1c [1]; 24 h): 111.8 ± 3.2% | RAA (%) MTNR1c (relative agonistic activity) (medaka MTNR1c [1]; [9]): 112% | EC50 (medaka MTNR1c [1]; transiently transfected Hepa-E1 cells, 6.25 × 10^−7 M forskolin, 24 h, NC: not calculable (low activity, curve did not reach maximum), read-out: Potency (M) MTNR1c): 1.3e-11 M | RAA (%) MTNR1a (relative agonistic activity) (medaka MTNR1a [2]; Hepa-E1 cells, forskolin, 24 h, ND: not detected): 95.8 ± 6.9% | RAA (%) MTNR1a (relative agonistic activity) (medaka MTNR1a [2]; Hepa-E1 cells, forskolin, 24 h, ND: not detected, listed as 2-Iodomelatonin): less than 100% | EC50 (medaka MTNR1a [2]; [10]): 2.7e-11 M | RAA (%) MTNR1a-like (relative agonistic activity) [3, 11]: 69.3 ± 6.8% | RAA (%) MTNR1a-like (relative agonistic activity) ([3]; maximal activity as percentage of that of melatonin, Hepa-E1 cells, forskolin, 24 h, ND: not detected, listed as 2-Iodomelatonin): 69.3% | EC50 [3, 12]: 4e-10 M | RAA (%) MTNR1b (relative agonistic activity) (medaka MTNR1b [4]; 24 h): 101.4 ± 2.8% | RAA (%) MTNR1b (relative agonistic activity) (medaka MTNR1b [4]; [9]): equivalent to that of melatonin | EC50 (medaka MTNR1b [4]; stably transfected Hepa-E1 cells, 6.25 × 10^−7 M forskolin, 24 h, NC: not calculable (low activity, curve did not reach maximum), read-out: Potency (M) MTNR1b): 3.9e-11 M

CC(=O)NCCc1c(Cc2ccccc2)[nH]c2ccccc12 [Luzindole]
AI (%) MTNR1a (antagonistic index) (medaka MTNR1a [5]): did not exhibit inhibition | AI (%) MTNR1a-like (antagonistic index) [6]: did not exhibit inhibition | AI (%) MTNR1c (antagonistic index) (medaka MTNR1c [7]): did not exhibit inhibition | AI (%) MTNR1b (antagonistic index) (medaka MTNR1b [8]): did not exhibit inhibition | Emax (medaka MTNR1c [1]; 24 h, 24 h): 118% | EC50 (medaka MTNR1c [1]; MTNR1c-transfected Hepa-E1 cells, cAMP-responsive reporter, read-out: EC50 MTNR1c): > 1e-06 M | RAA (%) MTNR1c (relative agonistic activity) (medaka MTNR1c [1]; 24 h, 1440 min): 117.6 ± 11.5% | RAA (%) MTNR1a (relative agonistic activity) (medaka MTNR1a [2]; Hepa-E1 cells, forskolin, 24 h, ND: not detected, 1440 min): 68.2 ± 3.8% | RAA (%) MTNR1a (relative agonistic activity) (medaka MTNR1a [2]; Hepa-E1 cells, forskolin, 24 h, ND: not detected, listed as luzindole, 1440 min): less than 100% | agonistic activity in medaka MTNR1a (medaka MTNR1a [2]): exhibited agonistic activity | EC50 (medaka MTNR1a [2]; [10]): 3.3e-07 M | EC50 ([3]; MTNR1d (MTNR1a-like) transfected Hepa-E1 cells, cAMP-responsive reporter, read-out: EC50 MTNR1d): > 1e-06 M | Emax [3, 11]: 83.1% | agonistic activity in medaka MTNR1d [3]: exhibited agonistic activity

COc1ccc2[nH]cc(CCNC(C)=O)c2c1 [Melatonin, N-acetyl-5-methoxytryptamine]
EC50 (medaka MTNR1c [1]): 6.2e-11 M | Emax (medaka MTNR1c [1]; 24 h, 24 h): 100 ± 1.8% | potency for melatonin of MTNR1c compared with MTNR1d/MTNR1a-like (medaka MTNR1c [1]; ratio of potencies between subtypes): more than three hundred-fold | EC50 (medaka MTNR1a [2]): 4.8e-10 M | Emax (medaka MTNR1a [2]; 24 h, read-out: RAA (%) MTNR1a (relative agonistic activity), maximal activity as percentage of that of melatonin, Hepa-E1 cells, forskolin, 24 h, ND: not detected): 100 ± 3.8% | EC50 [3]: 2.2e-08 M | Emax ([3]; 24 h): 100 ± 2.9% | EC50 (medaka MTNR1b [4]): 1.9e-09 M | Emax (medaka MTNR1b [4]; 24 h, read-out: RAA (%) MTNR1b (relative agonistic activity)): 100 ± 4.4%

CCC(=O)NC1Cc2ccccc2C(c2ccccc2)C1 (stereo not shown) [4P-PDOT]
AI (%) MTNR1b (antagonistic index) (medaka MTNR1b [8]): 68.3% and 68.3 ± 8.0% | IC50 (medaka MTNR1b [8]; with EC90 melatonin and forskolin, Hepa-E1 cells, 24 h, NC: not calculable, read-out: Potency (M) MTNR1b, antagonist): 1.9e-07 M | agonistic effect on MTNR1c (medaka MTNR1c [1]; reporter assay without melatonin): no agonistic effects | agonistic activity in medaka MTNR1a (medaka MTNR1a [2]): exhibited agonistic activity | EC50 (medaka MTNR1a [2]; [10]): 4.7e-09 M | RAA (%) MTNR1a-like (relative agonistic activity) [3, 11]: 68.7% and 68.7 ± 6.4% | agonistic activity in medaka MTNR1d [3]: exhibited agonistic activity | EC50 [3, 12]: 1.2e-07 M
